From ChEMBL document CHEMBL5352441, “Modulation of FLT3-ITD and CDK9 in acute myeloid leukaemia cells by novel proteolysis targeting chimera (PROTAC)” (2022)
Calls of active or inactive are those of the source. No cut-off for these calls is given here.

Legend:
MV4-11 [1] = assay: Induction of apoptosis in human MV4-11 cells assessed as activation of caspase 3 incubated for 16 hrs in presence of Ac-DEVD-AMC by fluorescence microplate reader analysis; type: functional, cell-based; settings: dose 0.004-2.5 µM
MV4-11 [2] = assay: Induction of cell cycle arrest in CRBN-deficient human MV4-11 cells assessed as accumulation of cells at S phase at 0.1 uM incubated for 16 hrs by PI staining based flow cytometry analysis (reference value: 36.91%); type: functional
MV4-11 [3] = assay: Downregulation of Myb gene expression in human MV4-11 cells incubated for 4 hrs by qRT-PCR analysis; type: functional, cell-based; settings: dose 0.004-2.5 µM
[4] = biological target: T1, Protein cereblon/Receptor-type tyrosine-protein kinase FLT3 (Homo sapiens) (UniProt P36888+Q96SW2); assay: PROTAC activity at CRBN/FLT3 in CRBN-deficient human MV4-11 cells assessed as induction of protein degradation at 0.004 to 2.5 uM incubated for 16 hrs by immunoblot analysis; type: cell-based; settings: dose 0.004-2.5 µM
[5] = biological target: T1, Protein cereblon/Receptor-type tyrosine-protein kinase FLT3 (Homo sapiens); assay: PROTAC activity at CRBN/FLT3 in human MV4-11 cells harboring FLT3-ITD mutation assessed as induction of protein degradation at […] incubated for 16 hrs by immunoblot analysis; type: cell-based
[6] = biological target: T2, Protein cereblon/Cyclin-dependent kinase 9 (Homo sapiens) (UniProt P50750+Q96SW2); assay: PROTAC activity at CRBN/CDK9 in CRBN-deficient human MV4-11 cells assessed as induction of protein degradation at 0.004 to 2.5 uM incubated for 16 hrs by immunoblot analysis; type: cell-based; settings: dose 0.004-2.5 µM
K562 = assay: Antiproliferative activity against human K562 cells assessed as cell growth inhibition incubated for 72 hrs by resazurin dye based fluorescence analysis; type: functional
MV4-11 [7] = assay: Induction of cell cycle arrest in CRBN-deficient human MV4-11 cells assessed as accumulation of cells at S phase at 0.02 uM incubated for 16 hrs by PI staining based flow cytometry analysis (reference value: 36.91%); type: functional
[8] = biological target: T2, Protein cereblon/Cyclin-dependent kinase 9 (Homo sapiens); assay: PROTAC activity at CRBN/CDK9 in human MV4-11 cells at 0.1 to 0.5 uM preincubated for 90 mins with MG132 followed by compound addition and further incubated for 16 hrs by immunoblot analysis; type: cell-based; settings: dose 0.1-0.5 µM
MV4-11 [9] = assay: Induction of cell cycle arrest in CRBN-deficient human MV4-11 cells assessed as accumulation of cells at S phase at 2.5 uM incubated for 16 hrs by PI staining based flow cytometry analysis (reference value: 36.91%); type: functional
MV4-11 [10] = assay: Induction of cell cycle arrest in human MV4-11 cells assessed as accumulation of cells at G2/M phase at 0.5 uM incubated for 16 hrs by PI staining based flow cytometry analysis (reference value: 10.86%); type: functional
[11] = biological target: Receptor-type tyrosine-protein kinase FLT3 (Homo sapiens) (UniProt P36888); assay: Inhibition of FLT3 signalling pathway in human MV4-11 cells assessed as reduction in ERK1/2 phosphorylation at T202/Y204 residues at 0.1 to 0.5 uM preincubated for 90 mins with 4-hydroxythalidomide followed by compound addition and further incubated for 16 hrs by immunoblot analysis; type: cell-based; settings: dose 0.1-0.5 µM
MV4-11 [12] = assay: Induction of cell cycle arrest in human MV4-11 cells assessed as accumulation of cells at S phase at 0.004 uM incubated for 16 hrs by PI staining based flow cytometry analysis (reference value: 26.16%); type: functional
MV4-11 [13] = assay: Induction of cell cycle arrest in CRBN-deficient human MV4-11 cells assessed as accumulation of cells at G2/M phase at 0.004 uM incubated for 16 hrs by PI staining based flow cytometry analysis (reference value: 9.34%); type: functional
MV4-11 [14] = assay: Induction of cell cycle arrest in human MV4-11 cells assessed as accumulation of cells at subG1 phase at 0.02 uM incubated for 16 hrs by PI staining based flow cytometry analysis (reference value: 10.51%); type: functional
MV4-11 [15] = assay: Induction of cell cycle arrest in CRBN-deficient human MV4-11 cells assessed as accumulation of cells at sub-G1 phase at 2.5 uM incubated for 16 hrs by PI staining based flow cytometry analysis (reference value: 12.52%); type: functional
U-937 = assay: Antiproliferative activity against human U-937 cells assessed as cell growth inhibition incubated for 72 hrs by resazurin dye based fluorescence analysis; type: functional
MV4-11 [16] = assay: Induction of apoptosis in human MV4-11 cells assessed as PARP-1 cleavage incubated for 16 hrs in presence of Ac-DEVD-AMC by fluorescence microplate reader analysis; type: functional, cell-based; settings: dose 0.004-2.5 µM
MV4-11 [17] = assay: Downregulation of MEISI gene expression in human MV4-11 cells incubated for 4 hrs by qRT-PCR analysis; type: functional, cell-based; settings: dose 0.004-2.5 µM
MV4-11 [18] = assay: Induction of cell cycle arrest in human MV4-11 cells assessed as accumulation of cells at subG1 phase at 0.5 uM incubated for 16 hrs by PI staining based flow cytometry analysis (reference value: 10.51%); type: functional
MV4-11 [19] = assay: Induction of cell cycle arrest in human MV4-11 cells assessed as accumulation of cells at G1 phase at 0.1 uM incubated for 16 hrs by PI staining based flow cytometry analysis (reference value: 62.97%); type: functional
[20] = Selectivity index, ratio of GI50 for antiproliferative activity against CRBN-deficient human MV4-11 cells to GI50 for antiproliferative activity against human MV4-11 cells harboring FLT3-ITD mutation; type: functional
[21] = system: Receptor-type tyrosine-protein kinase FLT3 (Homo sapiens), P36888 [UNDEFINED MUTATION]; assay: Inhibition of FLT3 autophosphorylation at Y589/591 residue in human MV4-11 cells harboring FLT3-ITD mutation at 0.004 to 2.5 uM incubated for 16 hrs by immunoblot analysis; type: cell-based; settings: dose 0.004-2.5 µM
MV4-11 [22] = assay: Induction of cell cycle arrest in CRBN-deficient human MV4-11 cells assessed as accumulation of cells at G2/M phase at 0.02 uM incubated for 16 hrs by PI staining based flow cytometry analysis (reference value: 9.34%); type: functional
MV4-11 [23] = assay: Induction of cell cycle arrest in CRBN-deficient human MV4-11 cells assessed as accumulation of cells at sub-G1 phase at 0.02 uM incubated for 16 hrs by PI staining based flow cytometry analysis (reference value: 12.52%); type: functional
[24] = biological target: T2, Protein cereblon/Cyclin-dependent kinase 9 (Homo sapiens); assay: PROTAC activity at CRBN/CDK9 in human MV4-11 cells at 0.1 to 0.5 uM preincubated for 90 mins with 4-hydroxythalidomide followed by compound addition and further incubated for 16 hrs by immunoblot analysis; type: cell-based; settings: dose 0.1-0.5 µM
MV4-11 [25] = assay: Induction of cell cycle arrest in CRBN-deficient human MV4-11 cells assessed as accumulation of cells at G2/M phase at 2.5 uM incubated for 16 hrs by PI staining based flow cytometry analysis (reference value: 9.34%); type: functional
MV4-11 [26] = assay: Induction of cell cycle arrest in human MV4-11 cells assessed as accumulation of cells at G1 phase at 0.02 uM incubated for 16 hrs by PI staining based flow cytometry analysis (reference value: 62.97%); type: functional
MV4-11 [27] = assay: Induction of apoptosis in human MV4-11 cells assessed as activation of caspase 7 incubated for 16 hrs in presence of Ac-DEVD-AMC by fluorescence microplate reader analysis; type: functional, cell-based; settings: dose 0.004-2.5 µM
MV4-11 [28] = assay: Induction of cell cycle arrest in CRBN-deficient human MV4-11 cells assessed as accumulation of cells at G1 phase at 0.1 uM incubated for 16 hrs by PI staining based flow cytometry analysis (reference value: 54.05%); type: functional

T2 sequence (P50750 whole entry, looked up): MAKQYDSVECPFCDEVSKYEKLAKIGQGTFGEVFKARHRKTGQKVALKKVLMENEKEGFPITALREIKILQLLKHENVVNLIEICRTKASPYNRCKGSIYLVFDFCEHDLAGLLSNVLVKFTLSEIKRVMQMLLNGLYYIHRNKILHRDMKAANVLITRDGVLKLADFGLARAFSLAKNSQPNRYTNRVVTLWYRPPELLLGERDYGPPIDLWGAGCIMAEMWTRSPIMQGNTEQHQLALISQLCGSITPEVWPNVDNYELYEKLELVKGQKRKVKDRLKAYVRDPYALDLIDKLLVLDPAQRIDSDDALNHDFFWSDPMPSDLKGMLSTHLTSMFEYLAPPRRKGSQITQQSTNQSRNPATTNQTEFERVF
T2 sequence (Q96SW2 whole entry, looked up): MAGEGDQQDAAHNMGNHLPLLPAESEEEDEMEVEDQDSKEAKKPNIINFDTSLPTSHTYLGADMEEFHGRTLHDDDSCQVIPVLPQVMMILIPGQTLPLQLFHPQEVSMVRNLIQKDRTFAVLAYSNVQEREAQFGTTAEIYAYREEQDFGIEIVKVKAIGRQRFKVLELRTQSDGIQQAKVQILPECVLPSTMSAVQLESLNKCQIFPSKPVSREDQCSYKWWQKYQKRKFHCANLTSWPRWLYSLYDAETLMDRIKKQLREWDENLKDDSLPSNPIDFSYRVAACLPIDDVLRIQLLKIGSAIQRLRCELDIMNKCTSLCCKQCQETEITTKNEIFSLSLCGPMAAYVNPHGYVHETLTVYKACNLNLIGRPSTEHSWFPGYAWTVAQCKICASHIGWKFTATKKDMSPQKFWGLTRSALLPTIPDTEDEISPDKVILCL
T1 sequence (P36888 27-993 limits assumed): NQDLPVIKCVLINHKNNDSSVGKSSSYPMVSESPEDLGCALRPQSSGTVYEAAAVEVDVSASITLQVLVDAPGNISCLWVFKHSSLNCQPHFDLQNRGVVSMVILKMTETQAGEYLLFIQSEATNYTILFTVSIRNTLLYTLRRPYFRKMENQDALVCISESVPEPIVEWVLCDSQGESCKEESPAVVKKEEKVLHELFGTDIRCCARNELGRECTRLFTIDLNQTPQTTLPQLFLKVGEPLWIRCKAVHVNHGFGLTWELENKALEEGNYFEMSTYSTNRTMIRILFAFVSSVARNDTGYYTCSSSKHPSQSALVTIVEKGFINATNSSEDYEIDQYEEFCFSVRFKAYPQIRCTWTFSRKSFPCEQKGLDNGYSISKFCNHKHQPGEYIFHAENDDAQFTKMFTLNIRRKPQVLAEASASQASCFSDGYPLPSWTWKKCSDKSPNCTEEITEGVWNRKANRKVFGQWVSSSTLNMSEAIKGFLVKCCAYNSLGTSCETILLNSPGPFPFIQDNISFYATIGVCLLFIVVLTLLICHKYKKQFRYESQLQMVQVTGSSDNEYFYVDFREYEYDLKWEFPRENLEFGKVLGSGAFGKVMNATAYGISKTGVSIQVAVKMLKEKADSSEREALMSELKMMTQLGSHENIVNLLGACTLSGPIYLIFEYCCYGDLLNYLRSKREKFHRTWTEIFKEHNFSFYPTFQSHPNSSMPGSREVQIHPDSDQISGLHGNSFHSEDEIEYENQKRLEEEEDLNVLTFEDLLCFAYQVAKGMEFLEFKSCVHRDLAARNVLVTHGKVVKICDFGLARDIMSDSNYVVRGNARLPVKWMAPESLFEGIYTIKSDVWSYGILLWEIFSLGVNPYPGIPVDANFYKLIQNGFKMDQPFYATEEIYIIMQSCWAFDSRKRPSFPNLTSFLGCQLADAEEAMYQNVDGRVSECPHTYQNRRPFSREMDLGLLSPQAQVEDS
T1 sequence (Q96SW2 whole entry partner): as the sequence (Q96SW2 whole entry, looked up) above
Sequence of Receptor-type tyrosine-protein kinase FLT3 (Homo sapiens) (P36888 whole entry): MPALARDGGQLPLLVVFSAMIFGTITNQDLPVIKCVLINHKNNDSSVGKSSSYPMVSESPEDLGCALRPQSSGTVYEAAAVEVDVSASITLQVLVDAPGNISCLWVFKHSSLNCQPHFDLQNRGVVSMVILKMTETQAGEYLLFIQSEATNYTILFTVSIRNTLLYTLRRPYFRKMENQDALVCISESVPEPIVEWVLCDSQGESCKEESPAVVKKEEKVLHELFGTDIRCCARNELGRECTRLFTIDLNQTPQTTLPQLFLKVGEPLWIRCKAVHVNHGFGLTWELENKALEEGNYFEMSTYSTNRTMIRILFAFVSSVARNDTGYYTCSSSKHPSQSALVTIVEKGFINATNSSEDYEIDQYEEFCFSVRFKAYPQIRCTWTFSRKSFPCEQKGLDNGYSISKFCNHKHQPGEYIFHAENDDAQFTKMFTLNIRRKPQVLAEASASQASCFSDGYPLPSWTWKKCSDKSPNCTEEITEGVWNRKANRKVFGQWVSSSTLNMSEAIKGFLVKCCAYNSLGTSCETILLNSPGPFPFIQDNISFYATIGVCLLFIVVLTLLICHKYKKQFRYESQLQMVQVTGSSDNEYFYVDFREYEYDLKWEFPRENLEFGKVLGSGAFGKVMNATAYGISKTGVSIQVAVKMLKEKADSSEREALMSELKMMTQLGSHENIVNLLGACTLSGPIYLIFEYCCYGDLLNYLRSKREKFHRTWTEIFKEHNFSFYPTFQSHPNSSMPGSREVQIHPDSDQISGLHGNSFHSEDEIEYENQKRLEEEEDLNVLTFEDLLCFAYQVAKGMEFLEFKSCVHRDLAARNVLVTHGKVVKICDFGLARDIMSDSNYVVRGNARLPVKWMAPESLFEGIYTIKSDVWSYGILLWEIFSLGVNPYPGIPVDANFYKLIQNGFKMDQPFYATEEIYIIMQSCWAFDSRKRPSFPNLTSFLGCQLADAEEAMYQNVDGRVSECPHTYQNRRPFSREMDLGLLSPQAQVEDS
Sequence of Receptor-type tyrosine-protein kinase FLT3 (Homo sapiens), P36888 [UNDEFINED MUTATION] (P36888 whole entry, looked up, change not shown): as the sequence (P36888 whole entry) above

## NC1CCC(Nc2nc(Nc3ccc(N4CCN(CCOCCOCCNC(=O)CNc5cccc6c5C(=O)N(C5CCC(=O)NC5=O)C6=O)CC4)cc3)c3ncn(C4CCCC4)c3n2)CC1 (stereo not given)
MV4-11 [1]
  Activity: Dose-Dependent Effect
MV4-11 [2]
  Activity: 6.07%
MV4-11 [3]
  Activity: Dose-Dependent Effect
[4]
  Activity: inactive
[5]
  Activity: Active
[6]
  Activity: inactive
K562
  GI50: > 10 µM
MV4-11 [7]
  Activity: 17.04%
[8]
  Activity: inactive
MV4-11 [9]
  Activity: 6.05%
MV4-11 [10]
  Activity: 6.85%
[11]
  inhibition: Active
MV4-11 [12]
  Activity: 21.5%
MV4-11 [13]
  Activity: 8.04%
MV4-11 [14]
  Activity: 12.82%
MV4-11 [15]
  Activity: 20.31%
U-937
  GI50: 9.51 µM
MV4-11 [16]
  Activity: Dose-Dependent Effect
MV4-11 [17]
  Activity: Dose-Dependent Effect
MV4-11 [18]
  Activity: 58.62%
MV4-11 [19]
  Activity: 89.61%
[20]
  RatioGI50: 2
[21]
  inhibition: Active
MV4-11 [22]
  Activity: 6%
MV4-11 [23]
  Activity: 13.43%
[24]
  Activity: inactive
MV4-11 [25]
  Activity: 4.56%
MV4-11 [26]
  Activity: 82.36%
MV4-11 [27]
  Activity: Dose-Dependent Effect
MV4-11 [28]
  Activity: 90.54%
